From patent US9771372B2, “Compounds useful as S100-inhibitors” (Active Biotech AB, priority 2014, dated 2017)

Molecular target: T1, interaction between biotinylated human S100A9 and human RAGE-Fc (Homo sapiens, UniProt P06702)
T1 construct: made in house; host or cells: E. coli BL21(DE3)/pET1120 (pLR757)
T1 sequence (P06702 1-114): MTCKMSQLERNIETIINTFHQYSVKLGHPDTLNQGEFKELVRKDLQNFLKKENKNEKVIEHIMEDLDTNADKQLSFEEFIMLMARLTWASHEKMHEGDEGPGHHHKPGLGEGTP
Experiment: AlphaScreen inhibition assay, Biot-hS100A9:hRAGE-Fc (S100A9-RAGE inhibition assay)
Type: binding
Conditions: biot-hS100A9 and rhRAGE-Fc, Ca2+ and Zn2+ in buffer
Summary of the method: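 Biotinylated human S100A9, in HBS-P with CaCl2 and ZnCl2, preincubated 1 h at room temperature in the dark with compound (final DMSO ≤1.25%), then combined with rhRAGE-Fc on protein A Acceptor beads plus streptavidin Donor beads (20 μg/mL each). Protein levels batch-dependent; percent inhibition from AlphaScreen signal vs DMSO-only control.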

| Compound | IC50 [nM] |
| --- | --- |
| O=C(CC1CCCCC1)NC1(C(F)(F)F)C(=O)Nc2nc3cc(F)c(F)cc3n21 (stereo not shown) [Example 74, 2-cyclohexyl-N-[10,11-difluoro-4-oxo-3-(trifluoromethyl)-2,5,7-triazatricyclo[6.4.0.0^2,6]-dodeca-1(8),6,9,11-tetraen-3-yl]acetamide] | 3600 |
| COc1cc2nc3n(c2cc1OC)C(NC(=O)CCC1CCCC1)(C(F)(F)F)C(=O)N3 (stereo not shown) [Example 76, 3-cyclopentyl-N-[10,11-dimethoxy-4-oxo-3-(trifluoromethyl)-2,5,7-triazatricyclo-[6.4.0.0^2,6]dodeca-1(12),6,8,10-tetraen-3-yl]propanamide] | 11400 |
| Cc1cc2c(nc3n2C(NC(=O)c2ccccc2)(C(F)(F)F)C(=O)N3)c(Br)c1C (stereo not shown) [Example 77, N-[9-bromo-10,11-dimethyl-4-oxo-3-(trifluoromethyl)-2,5,7-triazatricyclo[6.4.0.0^2,6]dodeca-1(8),6,9,11-tetraen-3-yl]benzamide] | 4300 |
| Cc1ccc2c(nc3n2C(NC(=O)CCC2CCCC2)(C(F)(F)F)C(=O)N3)c1C (stereo not shown) [Example 80, 3-cyclopentyl-N-[9,10-dimethyl-4-oxo-3-(trifluoromethyl)-2,5,7-triazatricyclo[6.4.0.0^2,6]-dodeca-1(12),6,8,10-tetraen-3-yl]propanamide] | 7400 |
| Cc1cccc2c1nc1n2C(NC(=O)CCC2CCCC2)(C(F)(F)F)C(=O)N1 (stereo not shown) [Example 81, 3-cyclopentyl-N-[9-methyl-4-oxo-3-(trifluoromethyl)-2,5,7-triazatricyclo[6.4.0.0^2,6]dodeca-1(12),6,8,10-tetraen-3-yl]propanamide] | 5600 |
| O=C(CCC1CCCC1)NC1(C(F)(F)F)C(=O)Nc2nc3c(Cl)cccc3n21 (stereo not shown) [Example 85, N-[9-chloro-4-oxo-3-(trifluoromethyl)-2,5,7-triazatricyclo[6.4.0.0^2,6]dodeca-1(12),6,8,10-tetraen-3-yl]-3-cyclopentylpropanamide] | 2600 |
| O=C(CCC1CCCC1)NC1(C(F)(F)F)C(=O)Nc2nc3c(F)cc(F)cc3n21 (stereo not shown) [Example 86, 3-cyclopentyl-N-[9,11-difluoro-4-oxo-3-(trifluoromethyl)-2,5,7-triazatricyclo-[6.4.0.0^2,6]dodeca-1(12),6,8,10-tetraen-3-yl]propanamide] | 6400 |
| O=C(CCC1(O)CCCC1)NC1(C(F)(F)F)C(=O)Nc2nc3cc(Cl)c(Cl)cc3n21 (stereo not shown) [Example 88, N-[10,11-dichloro-4-oxo-3-(trifluoromethyl)-2,5,7-triazatricyclo[6.4.0.0^2,6]dodeca-1(8),6,9,11-tetraen-3-yl]-3-(1-hydroxycyclopentyl)propanamide] | 1610 |
| COCCN(C)c1cccc(C(=O)NC2(C(F)(F)F)C(=O)Nc3nc4cc(Cl)c(Cl)cc4n32)n1 (stereo not shown) [Example 94, N-[10,11-dichloro-4-oxo-3-(trifluoromethyl)-2,5,7-triazatricyclo[6.4.0.0^2,6]dodeca-1(8),6,9,11-tetraen-3-yl]-6-[(2-methoxyethyl)(methyl)amino]pyridine-2-carboxamide] | 1590 |
| N#Cc1cccc(C(=O)NC2(C(F)(F)F)C(=O)Nc3nc4cc(Cl)c(Cl)cc4n32)c1 (stereo not shown) [Example 100, 3-cyano-N-[10,11-dichloro-4-oxo-3-(trifluoromethyl)-2,5,7-triazatricyclo[6.4.0.0^2,6]dodeca-1(8),6,9,11-tetraen-3-yl]benzamide] | 2020 |
| O=C(NC1(C(F)(F)F)C(=O)Nc2nc3cc(Cl)c(Cl)cc3n21)C1(F)CNC1 (stereo not shown) [Example 103, N-[10,11-dichloro-4-oxo-3-(trifluoromethyl)-2,5,7-triazatricyclo[6.4.0.0^2,6]dodeca-1(8),6,9,11-tetraen-3-yl]-3-fluoroazetidine-3-carboxamide] | 3970 |
| O=C(CCN1CC(F)(F)C1)NC1(C(F)(F)F)C(=O)Nc2nc3cc(Cl)c(Cl)cc3n21 (stereo not shown) [Example 104, N-[10,11-dichloro-4-oxo-3-(trifluoromethyl)-2,5,7-triazatricyclo[6.4.0.0^2,6]dodeca-1(8),6,9,11-tetraen-3-yl]-3-(3,3-difluoroazetidin-1-yl)propanamide] | 4020 |
| COCCNc1cccc(C(=O)NC2(C(F)(F)F)C(=O)Nc3nc4cc(C)c(C)cc4n32)n1 (stereo not shown) [Example 111, N-[10,11-dimethyl-4-oxo-3-(trifluoromethyl)-2,5,7-triazatricyclo[6.4.0.0^2,6]dodeca-1(8),6,9,11-tetraen-3-yl]-6-[(2-methoxyethyl)amino]pyridine-2-carboxamide] | 1620 |
| COCCNc1nc(C(=O)NC2(C(F)(F)F)C(=O)Nc3nc4cc(C)c(C)cc4n32)cs1 (stereo not shown) [Example 119, N-[10,11-dimethyl-4-oxo-3-(trifluoromethyl)-2,5,7-triazatricyclo[6.4.0.0^2,6]dodeca-1(8),6,9,11-tetraen-3-yl]-2-[(2-methoxyethyl)amino]-1,3-thiazole-4-carboxamide] | 1820 |
| CC(=O)c1cccc2c1nc1n2C(NC(=O)CCC2CCCC2)(C(F)(F)F)C(=O)N1 (stereo not shown) [Example 122, N-[9-acetyl-4-oxo-3-(trifluoromethyl)-2,5,7-triazatricyclo[6.4.0.0^2,6]dodeca-1(12),6,8,10-tetraen-3-yl]-3-cyclopentylpropanamide] | 1500 |
| O=C(CCC1CCCC1)NC1(C(F)(F)F)C(=O)Nc2nc3c(C(F)(F)F)cc(Br)cc3n21 (stereo not shown) [Example 129, N-[11-bromo-4-oxo-3,9-bis(trifluoromethyl)-2,5,7-triazatricyclo[6.4.0.0^2,6]dodeca-1(8),6,9,11-tetraen-3-yl]-3-cyclopentylpropanamide] | 2260 |

The next lines start with the values.

| IC50 [nM] | Compound |
| --- | --- |
| 1200 | O=C(CCC1CCCC1)NC1(C(F)(F)F)C(=O)Nc2nc3cc4c(cc3n21)CCC4 (stereo not shown) [Example 78, 3-cyclopentyl-N-[12-oxo-11-(trifluoromethyl)-10,13,15-triazatetracyclo[7.6.0.0^3,7.0^10,14]-pentadeca-1(9),2,7,14-tetraen-11-yl]propanamide] |
| 1400 | O=C(CCC1CCCC1)NC1(C(F)(F)F)C(=O)Nc2nc3c(F)c(F)ccc3n21 (stereo not shown) [Example 82, 3-cyclopentyl-N-[9,10-difluoro-4-oxo-3-(trifluoromethyl)-2,5,7-triazatricyclo[6.4.0.0^2,6]-dodeca-1(12),6,8,10-tetraen-3-yl]propanamide] |
| 600 | O=C(CCC1CCCC1)NC1(C(F)(F)F)C(=O)Nc2nc3c(Cl)c(Cl)ccc3n21 (stereo not shown) [Example 83, 3-cyclopentyl-N-[9,10-dichloro-4-oxo-3-(trifluoromethyl)-2,5,7-triazatricyclo[6.4.0.0^2,6]-dodeca-1(12),6,8,10-tetraen-3-yl]propanamide] |
| 1400 | O=C(CCC1CCCC1)NC1(C(F)(F)F)C(=O)Nc2nc3c(Cl)cc(Cl)cc3n21 (stereo not shown) [Example 84, 3-cyclopentyl-N-[9,11-dichloro-4-oxo-3-(trifluoromethyl)-2,5,7-triazatricyclo[6.4.0.0^2,6]-dodeca-1(12),6,8,10-tetraen-3-yl]propanamide] |
| 260 | O=C(NC1(C(F)(F)F)C(=O)Nc2nc3cc(Cl)c(Cl)cc3n21)c1cccc(NCCO)n1 (stereo not shown) [Example 91, N-[10,11-dichloro-4-oxo-3-(trifluoromethyl)-2,5,7-triazatricyclo[6.4.0.0^2,6]dodeca-1(8),6,9,11-tetraen-3-yl]-6-[(2-hydroxyethyl)amino]pyridine-2-carboxamide] |
| 600 | CN(C)CCNc1cccc(C(=O)NC2(C(F)(F)F)C(=O)Nc3nc4cc(Cl)c(Cl)cc4n32)n1 (stereo not shown) [Example 93, N-[10,11-dichloro-4-oxo-3-(trifluoromethyl)-2,5,7-triazatricyclo[6.4.0.0^2,6]dodeca-1(8),6,9,11-tetraen-3-yl]-6-{[2-(dimethylamino)ethyl]amino}pyridine-2-carboxamide] |
| 1080 | COC(=O)c1cccc(C(=O)NC2(C(F)(F)F)C(=O)Nc3nc4cc(Cl)c(Cl)cc4n32)n1 (stereo not shown) [Example 95, methyl 6-{[10,11-dichloro-4-oxo-3-(trifluoromethyl)-2,5,7-triazatricyclo[6.4.0.0^2,6]dodeca-1(8),6,9,11-tetraen-3-yl]carbamoyl}pyridine-2-carboxylate] |
| 190 | O=C(NC1(C(F)(F)F)C(=O)Nc2nc3cc(Cl)c(Cl)cc3n21)c1cccc(CO)n1 (stereo not shown) [Example 97, N-[10,11-dichloro-4-oxo-3-(trifluoromethyl)-2,5,7-triazatricyclo[6.4.0.0^2,6]dodeca-1(8),6,9,11-tetraen-3-yl]-6-(hydroxymethyl)pyridine-2-carboxamide] |
| 1270 | COCCNc1nc(C(=O)NC2(C(F)(F)F)C(=O)Nc3nc4c(C#N)c(Cl)ccc4n32)cs1 (stereo not shown) [Example 139, N-[10-chloro-9-cyano-4-oxo-3-(trifluoromethyl)-2,5,7-triazatricyclo[6.4.0.0^2,6]dodeca-1(8),6,9,11-tetraen-3-yl]-2-[(2-methoxyethyl)amino]-1,3-thiazole-4-carboxamide] |
| 740 | O=C(CCC1CCCC1)NC1(C(F)(F)F)C(=O)Nc2nc3c(C(=O)O)cccc3n21 (stereo not shown) [Example 160, 3-(3-cyclopentylpropanamido)-4-oxo-3-(trifluoromethyl)-2,5,7-triazatricyclo[6.4.0.0^2,6]dodeca-1(12),6,8,10-tetraene-9-carboxylic acid] |
| 1470 | O=C(CCC1CCCC1)NC1(C(F)(F)F)C(=O)Nc2nc3c(OC(F)(F)F)cccc3n21 (stereo not shown) [Example 164, 3-cyclopentyl-N-[4-oxo-9-(trifluoromethoxy)-3-(trifluoromethyl)-2,5,7-triazatricyclo[6.4.0.0^2,6]dodeca-1(12),6,8,10-tetraen-3-yl]propanamide] |
| 1430 | O=C(CCC1CCCC1)NC1(C(F)(F)F)C(=O)Nc2nc3c(NS(=O)(=O)C4CC4)cccc3n21 (stereo not shown) [Example 165, 3-cyclopentyl-N-[9-cyclopropanesulfonamido-4-oxo-3-(trifluoromethyl)-2,5,7-triazatricyclo[6.4.0.0^2,6]dodeca-1(12),6,8,10-tetraen-3-yl]propanamide] |
